The target in the experiment is GSK3β (Homo sapiens, UniProt P49841). Kind of experiment: Inhibitory activity against GSK3β (33P-ATP phosphorylation of prephosphorylated GS1 peptide, two protocols). Format: biochemical. As to the method:
Two different protocols can be used. In a first protocol: 7.5 μM of prephosphorylated GS1 peptide and 10 μM ATP (containing 300,000 cpm of 33P-ATP) were incubated in 25 mM Tris-HCl, pH 7.5, 0.6 mM DTT, 6 mM MgCl2, 0.6 mM EGTA, 0.05 mg/ml BSA buffer for 1 hour at room temperature in the presence of GSK3beta (total reaction volume: 100 microliters). In a second protocol: 4.1 μM of prephosphorylated GS1 peptide and 42 μM ATP (containing 260,000 cpm 33P-ATP) were incubated in 80 mM Mes-NaOH, pH 6.5, 1 mM Mg acetate, 0.5 mM EGTA, 5 mM 2-mercaptoethanol, 0.02% Tween 20, 10% glycerol buffer for 2 hours at room temperature in the presence of GSK3beta. Inhibitors were solubilized in DMSO (final solvent concentration in the reaction medium, 1%). The reaction was stopped with 100 microliters of a solution made of 25 g polyphosphoric acid (85% P2O5), 126 ml 85% H3PO4, H2O to 500 ml and then diluted to 1:100 before use. An aliquot of the reaction mixture was then transferred to Whatman P81 cation exchange filters and rinsed with the solution described above. Incorporated 33P radioactivity was determined by liquid scintillation spectrometry. The phosphorylated GS-1 peptide used in the example was the same one as reported in Woodgett, J. R. (1989) Analytical Biochemistry 180, 237-241 and had the same sequence as reported therein, which reference is incorporated herein by reference in its entirety.

Chain of GSK3β (P49841 whole entry): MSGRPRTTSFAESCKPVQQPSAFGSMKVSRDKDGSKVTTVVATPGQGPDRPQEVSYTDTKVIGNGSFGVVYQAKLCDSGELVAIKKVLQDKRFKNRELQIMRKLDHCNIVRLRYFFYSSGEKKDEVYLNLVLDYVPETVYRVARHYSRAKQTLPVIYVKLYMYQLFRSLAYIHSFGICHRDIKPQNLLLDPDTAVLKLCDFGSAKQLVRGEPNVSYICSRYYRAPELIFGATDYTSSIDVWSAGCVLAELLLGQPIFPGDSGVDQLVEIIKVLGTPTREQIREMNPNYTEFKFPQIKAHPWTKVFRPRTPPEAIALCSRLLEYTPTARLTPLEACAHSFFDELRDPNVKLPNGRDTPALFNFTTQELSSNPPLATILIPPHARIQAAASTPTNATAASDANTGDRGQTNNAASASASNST

The term IC50 denotes the concentration that inhibits the measured activity by half. High values mean weaker potency in that assay, low ones greater potency in that assay. `COc1cc(F)ccc1C(=O)NC1CCCn2c1nc(-c1ccncn1)cc2=O` (racemic) [compound No. 33 of table 1, (+/−) 4-Fluoro-2-methoxy-N-(4-oxo-2-pyrimidin-4-yl-6,7,8,9-tetrahydro-4H-pyrido[1,2-a]pyrimidin-9-yl)benzamide]: the IC50 came to 5 nM.
